In patent US20240383955A1, “MODIFIED ANTIMICROBIAL PEPTIDES” (priority 2021, published 2024):
Converted amounts (≈) assume the structure as drawn. Bridge positions count the residues as written; N and C are the ends. Ends that are not written are not given here. Peptide text beside a SMILES is read from it.

Key:
[1] = tested on: Botrytis cinerea; conditions: Table 18
[2] = tested on: B. cinerea; assay: Semi-in planta drop inoculation assay on detached leaves of N. benthamiana, gray mold symptoms; type: in vivo, B. cinerea on N. benthamiana; conditions: 48 h; for reducing the symptoms of gray mold, comparison of peptides: peptide at 1.5 μM

Row | Compound | MIC (SFM + 2 mM CaCl2) [1] | MIC (SFM + 100 mM KCl) [1] | MIC (SFM + 100 mM NaCl) [1] | MIC SFM [1] | reducing the symptoms of gray mold, comparison of peptides [2] | gray mold symptoms ([2]; peptide at 3 μM and 6 μM) | gray mold symptoms [2] | effectiveness in reducing gray mold disease symptoms ([2]; peptide tested at 1.5 μM, 3 μM and 6 μM)
1 | CC(C)C[C@@H]1NC(=O)[C@@H](NC(=O)[C@H](C)NC(=O)CN)CSSC[C@@H](C(=O)N[C@@H](Cc2ccc(O)cc2)C(N)=O)NC(=O)[C@H](Cc2c[nH]cn2)NC(=O)[C@H](CCCNC(=N)N)NC(=O)[C@H](Cc2ccc(O)cc2)NC(=O)[C@H](Cc2ccc(O)cc2)NC(=O)[C@H](Cc2c[nH]c3ccccc23)NC(=O)[C@H](Cc2ccccc2)NC(=O)[C@H](Cc2c[nH]c3ccccc23)NC(=O)CNC(=O)[C@H](Cc2ccc(O)cc2)NC(=O)[C@H](Cc2c[nH]cn2)NC(=O)[C@H](CCCCN)NC(=O)[C@H](CO)NC(=O)[C@H](Cc2c[nH]cn2)NC(=O)[C@H](CCCNC(=N)N)NC(=O)[C@H](CC(N)=O)NC(=O)[C@H](CCCCN)NC1=O [GMAOe1C_V3] (H-GACLKNRHSKHYGWFWYYRHCY-NH2; disulfide 3-21) | 3 to 6 µM | 6 to 12 µM | 2 to 3 µM | 1.5 µM (≈ 4.31 µg/mL) | more effective than GMAOe1C_V4 or GMAOe1C_WT | completely abrogated gray mold symptoms |  | 
2 | CC[C@H](C)[C@@H]1NC(=O)[C@H](CCCNC(=N)N)NC(=O)[C@@H](NC(=O)[C@H](CCCNC(=N)N)NC(=O)CNC(=O)[C@@H](N)CO)CSSC[C@@H](C(N)=O)NC(=O)[C@H](CC(N)=O)NC(=O)[C@H](CCCCN)NC(=O)[C@H]([C@@H](C)O)NC(=O)[C@H](Cc2ccccc2)NC(=O)[C@H](Cc2ccc(O)cc2)NC(=O)[C@H](Cc2c[nH]c3ccccc23)NC(=O)[C@H](CCCNC(=N)N)NC(=O)[C@H](Cc2ccccc2)NC(=O)[C@H](CC(C)C)NC1=O [GMA1C_V3] (H-SGRCRILFRWYFTKNC-NH2; disulfide 4-16) | 6 µM | >12 µM | 3 µM | 1.5 µM (≈ 3.07 µg/mL) |  |  |  | 
3 | C[C@H](NC(=O)CN)C(=O)N[C@H]1CSSC[C@@H](C(N)=O)NC(=O)[C@H](CCCCN)NC(=O)[C@H](CCCCN)NC(=O)[C@H](Cc2ccc(O)cc2)NC(=O)[C@H](Cc2ccccc2)NC(=O)[C@H](Cc2ccccc2)NC(=O)[C@H](Cc2ccccc2)NC(=O)[C@H](C)NC(=O)[C@H](Cc2ccccc2)NC(=O)CNC(=O)[C@H](Cc2ccccc2)NC(=O)CNC(=O)[C@H](CCC(N)=O)NC(=O)[C@H](CCCNC(=N)N)NC(=O)[C@H](Cc2c[nH]cn2)NC1=O [GMA5CA_V4] (H-GACHRQGFGFAFFFYKKC-NH2; disulfide 3-18) | >12 µM | >12 µM | >12 µM | 3 µM (≈ 6.33 µg/mL) |  |  |  | 
4 | CC[C@H](C)[C@H](NC(=O)[C@H](CCCNC(=N)N)NC(=O)[C@H](CS)NC(=O)[C@H](CCCNC(=N)N)NC(=O)CNC(=O)[C@@H](N)CO)C(=O)N[C@@H](CC(C)C)C(=O)N[C@@H](Cc1ccccc1)C(=O)N[C@@H](CCCNC(=N)N)C(=O)N[C@@H](CS)C(=O)N[C@@H](Cc1ccccc1)C(=O)N[C@@H](CS)C(=O)N[C@H](C(=O)N[C@@H](CCCCN)C(=O)N[C@@H](CC(N)=O)C(=O)N[C@@H](CS)C(N)=O)[C@@H](C)O [GMA1C_V1] (H-SGRCRILFRCFCTKNC-NH2; N-terminus assumed) |  |  |  |  |  |  | failed to reduce disease symptoms | 
5 | CC[C@H](C)[C@@H]1NC(=O)[C@H](CCCNC(=N)N)NC(=O)[C@@H](NC(=O)[C@H](CCCNC(=N)N)NC(=O)CNC(=O)[C@@H](N)CO)CSSC[C@@H](C(N)=O)NC(=O)[C@H](CC(N)=O)NC(=O)[C@H](CCCCN)NC(=O)[C@H]([C@@H](C)O)NC(=O)[C@H](Cc2c[nH]c3ccccc23)NC(=O)[C@H](Cc2ccccc2)NC(=O)[C@H](Cc2c[nH]c3ccccc23)NC(=O)[C@H](CCCNC(=N)N)NC(=O)[C@H](Cc2ccccc2)NC(=O)[C@H](CC(C)C)NC1=O [GMA1C_V2] (H-SGRCRILFRWFWTKNC-NH2; disulfide 4-16) | 3 µM | >12 µM | 3 µM | 1.5 to 3 µM | more effective than GMA1C_V1 | completely abrogated gray mold symptoms |  | 
6 | C[C@H](NC(=O)CN)C(=O)N[C@H]1CSSC[C@@H](C(N)=O)NC(=O)[C@H](CCCCN)NC(=O)[C@H](CCCCN)NC(=O)[C@H](Cc2ccc(O)cc2)NC(=O)[C@H](Cc2c[nH]c3ccccc23)NC(=O)[C@H](Cc2ccccc2)NC(=O)[C@H](Cc2c[nH]c3ccccc23)NC(=O)[C@H](C)NC(=O)[C@H](Cc2ccccc2)NC(=O)CNC(=O)[C@H](Cc2ccccc2)NC(=O)CNC(=O)[C@H](CCC(N)=O)NC(=O)[C@H](CCCNC(=N)N)NC(=O)[C@H](Cc2c[nH]cn2)NC1=O [GMA5CA_V3] (H-GACHRQGFGFAWFWYKKC-NH2; disulfide 3-18) | >12 µM | >12 µM | >12 µM | 3 µM (≈ 6.57 µg/mL) |  |  |  | 
7 | CC(C)C[C@@H]1NC(=O)[C@@H](NC(=O)[C@H](C)NC(=O)CN)CSSC[C@@H](C(=O)N[C@@H](Cc2ccc(O)cc2)C(N)=O)NC(=O)[C@H](Cc2c[nH]cn2)NC(=O)[C@H](CCCNC(=N)N)NC(=O)[C@H](Cc2ccc(O)cc2)NC(=O)[C@H](Cc2ccc(O)cc2)NC(=O)[C@H](Cc2c[nH]c3ccccc23)NC(=O)[C@H](Cc2ccccc2)NC(=O)[C@H](Cc2ccccc2)NC(=O)CNC(=O)[C@H](Cc2ccc(O)cc2)NC(=O)[C@H](Cc2c[nH]cn2)NC(=O)[C@H](CCCCN)NC(=O)[C@H](CO)NC(=O)[C@H](Cc2c[nH]cn2)NC(=O)[C@H](CCCNC(=N)N)NC(=O)[C@H](CC(N)=O)NC(=O)[C@H](CCCCN)NC1=O [GMAOe1C_V4] (H-GACLKNRHSKHYGFFWYYRHCY-NH2; disulfide 3-21) | 6 to 12 µM | 6 to 12 µM | 6 µM | 1.5 µM (≈ 4.25 µg/mL) |  | completely abrogated gray mold symptoms |  | 
8 | CC(C)C[C@H](NC(=O)[C@H](CS)NC(=O)[C@H](C)NC(=O)CN)C(=O)N[C@@H](CCCCN)C(=O)N[C@@H](CC(N)=O)C(=O)N[C@@H](CCCNC(=N)N)C(=O)N[C@@H](Cc1c[nH]cn1)C(=O)N[C@@H](CO)C(=O)N[C@@H](CCCCN)C(=O)N[C@@H](Cc1c[nH]cn1)C(=O)N[C@@H](Cc1ccc(O)cc1)C(=O)NCC(=O)N[C@@H](CS)C(=O)N[C@@H](Cc1ccc(O)cc1)C(=O)N[C@@H](CS)C(=O)N[C@@H](Cc1ccc(O)cc1)C(=O)N[C@@H](Cc1ccc(O)cc1)C(=O)N[C@@H](CCCNC(=N)N)C(=O)N[C@@H](Cc1c[nH]cn1)C(=O)N[C@@H](CS)C(=O)N[C@@H](Cc1ccc(O)cc1)C(N)=O [GMAOe1C_WT, reference compound] (H-GACLKNRHSKHYGCYCYYRHCY-NH2; N-terminus assumed) |  |  |  |  |  |  |  | only effective at 6 μM
9 | GACLKNRHSKHYGWFWYYRHCY-NH2 (disulfide 3-21 (inferred)) [GMAOe1C_V2] |  |  |  |  |  | completely abrogated gray mold symptoms |  | 
